Laboratory results as given in paper PMC8618441, “From Natural Xanthones to Synthetic C-1 Aminated 3,4-Dioxygenated Xanthones as Optimized Antifouling Agents” (Marine Drugs, 2021).
≈ marks a conversion by molar mass, not a printed value. Like-named read-outs stand apart in the source and are kept apart here.

Columns and labels:
[1] = test system: Mytilus galloprovincialis plantigrade larvae; conditions: cited from earlier work
[2] = test system: Mytilus galloprovincialis plantigrade larvae; conditions: cited from earlier work; remark: listed apart in the source
Artemia salina nauplii [3] = conditions: cited from earlier work
[4] = test system: Mytilus galloprovincialis plantigrade larvae; experiment: Mytilus galloprovincialis larvae anti-settlement bioassay; type: in vivo; conditions: for anti-settlement response versus negative control: screening at 50 μM, Dunnett test p < 0.05; for settlement of mussel larvae: at 50 µM
Experimental: (§1) For the bioassays, M. galloprovincialis juveniles were collected in intertidal mussel beds during low tides in Memória beach, Matosinhos, Portugal (41°13′59″ N; 8°43′28″ W). Mussel plantigrade larvae (0.5–2 mm) were sorted in a binocular magnifier (Olympus SZX2-ILLT, Tokyo, Japan) and those presenting foot exploring behavior for settlement were selected to the screening bioassays at 50 µM performed in 24-well microplates for 15 h, in the dark at 18 ± 1 °C, according to Almeida et al.. Four well replicates per condition and five competent larvae per well were included. Negative and positive controls were included, namely DMSO (0.1%) and CuSO4 (5 µM) as an efficient antifouling agent. Stock solutions in DMSO (50 mM) were used to prepare test media (50 µM) in filtered seawater (0.1% DMSO). After the exposure period, the anti-settlement bioactivity was determined by the observation of efficiently attached plantigrade larvae considering the existence/absence of produced byssal threads for each test condition.
(§2) Data from the anti-settlement screening were analyzed using a one-way analysis of variance (ANOVA), followed by a Dunnett test against the negative control (p < 0.05). […] Therapeutic ratios (LC50/EC50) were used to evaluate the effectiveness versus toxicity of bioactive compounds. […] The mixed model ANOVA was performed on log10(x + 1)-transformed values from 4 biological replicates, employing the software IBM SPSS Statistics (version 21, SPSS Inc., Chicago, IL, USA).

[5] = Toxicity (LC50, therapeutic ratio) toward mussel plantigrade larvae; type: in vivo; conditions: Mytilus galloprovincialis, in vivo, median lethal dose, mussel plantigrades
Experimental: as §1, §2

[6] = test system: Mytilus galloprovincialis plantigrade larvae; experiment: as above; type: in vivo
Experimental: as §1, §2

Artemia salina nauplii [7] = experiment: Brine shrimp (Artemia salina) lethality test, ecotoxicity; type: in vivo; conditions: 48 h; for toxicity to A. salina: lowest concentration tested, 25 μM; for mortality of Artemia salina nauplii: at 50 µM
Experimental: Ecotoxicity of the most promising xanthones to non-target species was assessed using the brine shrimp (Artemia salina) lethality test standard protocol. Newly hatched nauplii I larvae were used for the exposure to the most promising antifouling compounds at 50 and 25 µM. The bioassay was performed in 96-well microplates with eight replicates per condition and 15–20 nauplii per well, including a positive (K2Cr2O7 at 13.6 µM) and negative control (0.1% DMSO). The percentage of nauplii mortality for each condition was determined at the end of the exposure period (48 h).

[8] = test system: Roseobacter litoralis CECT 5395; experiment: Biofilm-forming marine bacteria growth bioassay; type: cell-based; conditions: for inhibition at 12.5 µM: Roseobacter litoralis, read-out: growth inhibition of R. litoralis
Experimental: The experimental procedure was performed as previously reported by Almeida et al.. […] Bacterial growth inhibition in the presence of the compounds was determined in quadruplicate at 600 nm using a microplate reader (Biotek Synergy HT, Winooski, VT, USA). Negative and positive controls used were a solution of marine broth with 0.1% DMSO, and a stabilized solution of marine broth with penicillin-streptomycin-neomycin, respectively.

[9] = test system: Balanus amphitrite larvae; conditions: cited from earlier work; for EC50, larval settlement of Balanus amphitrite / toxicity effects on the barnacle larvae: in vivo
Escherichia coli = test system: Escherichia coli; set-up: method as in PMID 23172582; conditions: in words; cited from earlier work
[10] = test system: brine shrimp (Artemia salina); set-up: method as in PMID 23172582; conditions: in words; cited from earlier work
[11] = Mytilus galloprovincialis, 15 h
[12] = Mytilus galloprovincialis, 15 h, read-out: EC50 (μg.mL^−1)
[13] = Mytilus galloprovincialis, 15 h, concentration that inhibited 50% of larval settlement of mussel plantigrades, 15 h exposure, read-out: EC50
[14] = Mytilus galloprovincialis, 15 h, concentration that inhibited 50% of larval settlement of mussel plantigrades, 15 h exposure, read-out: EC50 (μg.mL^−1)
[15] = other: larvae immersed in test media in filtered seawater
[16] = larval settlement of mussel plantigrades

Compound | anti-settlement response versus negative control [4] | EC50 [4, 13] [µM] | EC50 [4, 14] [µg/mL] | settlement of mussel larvae ([4]; 15 h) [%] | LC50 at 15 h [5, 15] [µM] | toxicity to the macrofouling species (mussel larvae) ([6]; in vivo) | mortality of Artemia salina nauplii (Artemia salina nauplii [7]) [%] | other results
O=c1c2ccccc2oc2c(O)c(O)ccc12 [3,4-Dihydroxyxanthone] | – | – | – | – | – | – | – | activity toward the settlement of Mytilus galloprovincialis larvae ([1]; in words): exhibited in vivo activity; toxicity to the macrofouling species (mussel larvae) ([2]; in words): low toxicity; ecotoxicity toward A. salina, mortality (Artemia salina nauplii [3]): < 10%
COc1cc(C)c2c(=O)c3ccccc3oc2c1OC [Compound 1, 3,4-dimethoxy-1-methyl-9H-xanthen-9-one] | highly significant anti-settlement responses | – | – | – | – | – | – | EC50 [4, 11]: 11.8 µM; EC50 [4, 12]: 3.19 µg/mL; LC50 at 15 h [5]: > 100 µM; toxicity to the macrofouling species (mussel larvae) ([6]; in words): low toxicity; toxicity to A. salina (Artemia salina nauplii [7]): significant toxicity
COc1ccc2c(=O)c3c(C)cc(OC)c(OC)c3oc2c1 [Compound 2, 3,4,6-trimethoxy-1-methyl-9H-xanthen-9-one] | highly significant anti-settlement responses | – | – | – | – | – | – | EC50 [4, 11]: 27.2 µM; EC50 [4, 12]: 8.15 µg/mL; LC50 at 15 h [5]: > 100 µM; toxicity to the macrofouling species (mussel larvae) ([6]; in words): low toxicity; toxicity to A. salina (Artemia salina nauplii [7]): significant toxicity
COc1ccc2c(=O)c3c(C)c(Cl)c(OC)c(OC)c3oc2c1 [Compound 3, 2-chloro-3,4,6-trimethoxy-1-methyl-9H-xanthen-9-one] | nullified the significant anti-settlement effect | – | – | – | – | – | – | –
COc1ccc2c(=O)c3c(CCl)cc(OC)c(OC)c3oc2c1 [Compound 4, 1-(chloromethyl)-3,4,6-trimethoxy-9H-xanthen-9-one] | highly significant anti-settlement responses | 16.1 | 5.41 | 20 | > 100 | low toxicity | < 10 | –
COc1ccc2c(=O)c3c(CBr)cc(OC)c(OC)c3oc2c1 [Compound 5, 1-(bromomethyl)-3,4,6-trimethoxy-9H-xanthen-9-one] | – | – | – | 45 | – | – | – | –
COc1cc(C(Br)Br)c2c(=O)c3ccccc3oc2c1OC [Compound 6, 1-(dibromomethyl)-3,4-dimethoxy-9H-xanthen-9-one] | highly significant anti-settlement responses | – | – | – | – | – | < 10 | EC50 [4, 11]: 22.8 µM; EC50 [4, 12]: 9.75 µg/mL; LC50 at 15 h [5]: > 100 µM; toxicity to the macrofouling species (mussel larvae) ([6]; in words): low toxicity; inhibition at 12.5 µM ([8]; CECT5395, 24 h): > 30%
COc1cc(CO)c2c(=O)c3ccccc3oc2c1OC [Compound 8, 1-(hydroxymethyl)-3,4-dimethoxy-9H-xanthen-9-one] | highly significant anti-settlement responses | 21.8 | 6.25 | 35 | > 100 | low toxicity | < 10 | –
COc1cc(CNCCN2CCOCC2)c2c(=O)c3ccccc3oc2c1OC [Compound 16, 3,4-dimethoxy-1-(((2-morpholinoethyl)amino)methyl)-9H-xanthen-9-one] | highly significant anti-settlement responses | 17.5 | 6.98 | 0 | > 100 | low toxicity | < 10 | antibacterial bioactivity in concentration–response study ([8]; R. litoralis, concentrations between 2 and 32 µM (Figure S1)): not confirmed; inhibition at 12.5 µM ([8]; CECT5395, screening at 12.5 µM, 24 h): > 30%
COc1cc(CN2CCN(CCO)CC2)c2c(=O)c3ccccc3oc2c1OC [Compound 19, 1-((4-(2-hydroxyethyl)piperazin-1-yl)methyl)-3,4-dimethoxy-9H-xanthen-9-one] | highly significant anti-settlement responses | 53.9 | 21.5 | 10 | > 100 | low toxicity | < 10 | –
COc1cc(CN2CCc3c(N)cccc3C2)c2c(=O)c3ccccc3oc2c1OC [Compound 21, 1-((5-amino-3,4-dihydroisoquinolin-2(1H)-yl)methyl)-3,4-dimethoxy-9H-xanthen-9-one] | highly significant anti-settlement responses | 7.28 | 3.03 | 20 | > 100 | low toxicity | < 10 | –
COc1cc(CN2CCCCC2)c2c(=O)c3ccccc3oc2c1OC [Compound 23, 3,4-dimethoxy-1-(piperidin-1-ylmethyl)-9H-xanthen-9-one] | highly significant anti-settlement responses | ~4 | 1.26 | 20 | > 100 | low toxicity | < 10 | EC50 ([4]; concentration that inhibited 50% of larval settlement of mussel plantigrades, 15 h exposure, read-out: EC50): 3.57 µM
N#Cc1c(-c2ccc(Cl)cc2)[nH]c(C(F)(F)F)c1Br [ECONEA] | – | – | – | – | – | – | – | EC50 [1, 16]: 4.01 µM; EC50 (μg.mL^−1) [1, 16]: 1.40 µg/mL (≈ 4.01 µM); LC50 ([2]; median lethal dose, mussel plantigrades): 108 µM; mortality of Artemia salina (Artemia salina nauplii [3]; at the same concentration range (25-50 µM)): 100%
COc1cc2c(c3c(=O)c4c(OC)ccc(O)c4oc13)[C@@H]1C=CO[C@@H]1O2 [methoxysterigmatocystin] | – | – | – | – | – | – | – | EC50, larval settlement of Balanus amphitrite [9]: < 0.125 µg/mL; toxicity effects on the barnacle larvae [9]: induced paralyzing effects
COC(=O)c1cc(O)cc2oc3c(Cl)c(C)c(Cl)c(O)c3c(=O)c12 [penicilixanthone] | – | – | – | – | – | – | – | EC50, larval settlement of B. amphitrite [9]: 17.1 µg/mL
COc1cc2c(c3oc4cccc(O)c4c(=O)c13)[C@@H]1C=CO[C@@H]1O2 [sterigmatocystin] | – | – | – | – | – | – | – | EC50, larval settlement of Balanus amphitrite [9]: < 0.125 µg/mL; toxicity effects on the barnacle larvae [9]: induced paralyzing effects
COC(=O)c1cc(OC)c2c(=O)c3c(O)cc(C)cc3oc2c1 [yicathin B] | – | – | – | – | – | – | – | antimicrobial activity against Escherichia coli (Escherichia coli): active; brine shrimp (Artemia salina) toxicity [10]: weak
